ChEMBL document CHEMBL1128063, “Discovery of selective dopamine D3 ligands: I. Dimeric 2-[4-(3-aminopropoxy)phenyl]benzimidazole antagonists” (Bioorg Med Chem Lett, 1995)

How the values were obtained:
D(2) dopamine receptor = D(2) dopamine receptor (Homo sapiens, UniProt P14416); test: Binding affinity towards human cloned Dopamine D2 receptor in CHO cells by [3H]spiperone displacement.; type: cell-based
D(3) dopamine receptor = D(3) dopamine receptor (Homo sapiens, UniProt P35462); test: Binding affinity towards human cloned Dopamine D3 receptor in CHO cells by [3H]spiperone displacement.; type: cell-based
D(3) dopamine receptor, sequence (P35462 whole entry): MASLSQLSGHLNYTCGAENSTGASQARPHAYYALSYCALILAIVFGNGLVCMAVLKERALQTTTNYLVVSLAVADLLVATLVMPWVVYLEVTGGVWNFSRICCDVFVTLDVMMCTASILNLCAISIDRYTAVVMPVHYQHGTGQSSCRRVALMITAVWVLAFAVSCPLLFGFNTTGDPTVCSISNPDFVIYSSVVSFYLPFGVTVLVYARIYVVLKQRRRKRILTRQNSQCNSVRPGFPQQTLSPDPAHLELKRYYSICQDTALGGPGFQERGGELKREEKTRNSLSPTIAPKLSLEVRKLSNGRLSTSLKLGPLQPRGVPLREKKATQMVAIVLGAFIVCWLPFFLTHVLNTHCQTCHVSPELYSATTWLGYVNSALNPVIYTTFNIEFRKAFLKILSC

Mus musculus = test: Compound was tested for the locomotory activity in mice after ip administration; type: functional
Rattus norvegicus = test: Compound was tested for the locomotory activity in rats after oral administration; no effect; type: functional

D(2) dopamine receptor, sequence (P14416 whole entry): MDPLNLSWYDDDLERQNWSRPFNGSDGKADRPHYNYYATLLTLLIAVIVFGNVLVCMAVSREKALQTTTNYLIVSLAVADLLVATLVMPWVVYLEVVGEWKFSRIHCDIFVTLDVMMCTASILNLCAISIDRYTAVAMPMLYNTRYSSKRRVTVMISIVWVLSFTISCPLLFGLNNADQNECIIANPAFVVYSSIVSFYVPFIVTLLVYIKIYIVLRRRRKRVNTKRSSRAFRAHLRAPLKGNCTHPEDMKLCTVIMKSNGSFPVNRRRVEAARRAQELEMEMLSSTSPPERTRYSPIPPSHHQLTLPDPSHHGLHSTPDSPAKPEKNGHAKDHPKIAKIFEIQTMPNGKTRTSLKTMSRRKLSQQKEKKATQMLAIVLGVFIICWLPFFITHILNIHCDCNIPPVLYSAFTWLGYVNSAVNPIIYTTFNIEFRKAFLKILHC

Structure (SMILES) | Ki (D(2) dopamine receptor) | Ki (D(3) dopamine receptor) | ED50 (Mus musculus) | ED50 (Rattus norvegicus)
CCN(CC)CCCOc1ccc(-c2nc3ccccc3n2C/C=C/Cn2c(-c3ccccc3)nc3ccccc32)cc1 | 6530 nM | 133 nM |  | 
CCN(CC)CCCOc1ccc(-c2nc3ccccc3n2Cc2ccc(Cn3c(-c4ccc(OCCCN(CC)CC)cc4)nc4ccccc43)cc2)cc1 | 3440 nM | 184 nM |  | 
CCN(CC)CCCOc1ccc(-c2nc3ccccc3n2CCCCn2c(-c3ccc(OCCCN(CC)CC)cc3)nc3ccccc32)cc1 | 1490 nM | 28 nM |  | 
CCN(CC)CCCOc1ccc(-c2nc3ccccc3n2C/C=C/Cn2c(-c3ccc(OCCCN(CC)CC)cc3)nc3ccccc32)cc1 | 2350 nM | 35 nM |  | 
CCCN(CCC)CCCOc1ccc(-c2nc3ccccc3n2C/C=C/Cn2c(-c3ccc(OCCCN(CCC)CCC)cc3)nc3ccccc32)cc1 | 343 nM | 5 nM |  | 
CCN(CC)CCCOc1ccc(-c2nc3ccccc3n2C/C=C/Cn2c(C)nc3ccccc32)cc1 | > 3330 nM | 1200 nM |  | 
CCN(CC)CCCOc1ccc(-c2nc3ccccc3n2CC=CCn2c(-c3ccc(OCCCN(CC)CC)cc3)nc3ccccc32)cc1 | 1520 nM | 87 nM |  | 
CCCCN(CCCC)CCCOc1ccc(-c2nc3ccccc3n2C/C=C/Cn2c(-c3ccc(OCCCN(CCCC)CCCC)cc3)nc3ccccc32)cc1 | 472 nM |  |  | 
CCN(CC)CCCOc1ccc(-c2nc3ccccc3n2CCCCCCn2c(-c3ccc(OCCCN(CC)CC)cc3)nc3ccccc32)cc1 | 1750 nM | 131 nM |  | 

Second part, led by results:

Ki (D(2) dopamine receptor) | Ki (D(3) dopamine receptor) | Structure (SMILES) | ED50 (Mus musculus) | ED50 (Rattus norvegicus)
> 3330 nM | > 2040 nM | C(=C\Cn1c(-c2ccc(OCCCN3CCOCC3)cc2)nc2ccccc21)/Cn1c(-c2ccc(OCCCN3CCOCC3)cc2)nc2ccccc21 |  | 
517 nM | 10 nM | C(=C\Cn1c(-c2ccc(OCCCN3CCCCC3)cc2)nc2ccccc21)/Cn1c(-c2ccc(OCCCN3CCCCC3)cc2)nc2ccccc21 | 7.1 mg/kg | > 30 mg/kg
4990 nM | 144 nM | CN(C)CCCOc1ccc(-c2nc3ccccc3n2C/C=C/Cn2c(-c3ccc(OCCCN(C)C)cc3)nc3ccccc32)cc1 |  | 
3940 nM | 275 nM | C(=C\Cn1c(-c2ccc(OCCCN3CCN(c4ccccc4)CC3)cc2)nc2ccccc21)/Cn1c(-c2ccc(OCCCN3CCN(c4ccccc4)CC3)cc2)nc2ccccc21 |  | 
1030 nM | 39 nM | CCN(CC)CCCOc1ccc(-c2nc3ccccc3n2C/C=C/Cn2c(-c3ccc(OCCCC4CCCCC4)cc3)nc3ccccc32)cc1 |  | 
1410 nM |  | CCN(CC)CCCOc1ccc(-c2nc3ccccc3n2C/C=C/Cn2c(-c3ccc(OC)cc3)nc3ccccc32)cc1 |  | 
803 nM | 19 nM | CCN(CC)CCCOc1ccc(-c2nc3ccccc3n2C/C=C/Cn2c(-c3ccc(OCCCN4CCN(c5ccccc5)CC4)cc3)nc3ccccc32)cc1 |  | 
56 nM | 9 nM | C(=C\Cn1c(-c2ccc(OCCCN3CCCC3)cc2)nc2ccccc21)/Cn1c(-c2ccc(OCCCN3CCCC3)cc2)nc2ccccc21 |  | 
